This is an account of results in patent US9725483B2, “Compounds for the treatment and/or care of the skin and/or mucous membranes and their use in cosmetic or pharmaceutical compositions” (LUBRIZOL ADVANCED MATERIALS, INC., priority 2012, dated 2017).

Residues, ends and D or L forms follow the SMILES beside them.

Assay [1] concerns IL-6 release induced by LL-37 in primary human keratinocytes. The assay can be described thus: Inhibition of the release of IL-6 induced by LL-37 in primary human keratinocytes (ELISA). The following applies: carrier = 100%. The format is cell-based. Here is the method:
(§1) Solutions of the compounds of the invention were prepared in Eppendorf tubes at the desired concentrations in complete Epilife® medium with and without LL-37 at 50 μg/mL in a final volume of 250 μL. The mixtures were incubated in rotation for 1 hour at room temperature. After the preincubation hour the samples were collected and they were given a quick pulse in the centrifuge to push all the solution to the bottom of the tube. Without removing the incubation medium, it was added to the 50 μL/well cells of the previous mixtures in quadruplicate and the plate was incubated at 37° C. in a CO2 incubator for 1 hour. After the hour of incubation, 50 μL/well of complete Epilife® medium were added. They were incubated for another 5 hours to allow the release of pro-inflammatory cytokines induced by LL-37 for their subsequent quantification by ELISA. After the 5 hours, the […] of supernatants were collected with the multi-channel pipette and passed to a new 96-well plate and the quantity of IL-6 and IL-8 released was determined by the Human IL-6 ELISA Ready-SET-GO!® and Human IL-8 ELISA Ready-SET-GO!® commercial kits (eBioscience, Inc.) following the supplier's instructions. The absorbency of each well was determined by reading a Multiskan Ascent Reader spectrophotometer at 450 nm correcting for each determination with its corresponding reading at 570 nm. The standardized relative levels of IL-6 and IL-8 were calculated with regard to the absorbency corresponding to the treatment of the cells with carrier. Next, the total number of cells per well was quantified with Cristal Violeta, in order to be able to calculate the percentage of interleukins released per cell.
(§2) In table 4 the results obtained from the release of IL-8 are detailed.
(In general: In an ELISA, binding on a coated surface is turned into a signal by an enzyme label.)

Assay [2] concerns IL-8 release induced by LL-37 in primary human keratinocytes. The assay can be described thus: Inhibition of the release of IL-8 induced by LL-37 in primary human keratinocytes (ELISA). As to conditions: carrier = 100%. The format is cell-based. How it is done: as §1, §2
The target in assay [3] is LL-37, cathelicidin C-terminal antimicrobial peptide (UniProt P49913). In words: cell-based or functional assay.
The subject of assay [4] is collagenase. In words: Anti-collagenase activity, fluorescein-derivatized gelatin. Type of assay: biochemical. The following applies: collagenase 0.4 U/mL, 2 hours. Here is the method:
Different concentrations of the peptide Ac-L-Ala-L-Thr-L-Asn-L-Thr-OH (Ac-(SEQ ID NO: 16)-OH) were incubated in a 96-well plate together with fluorescein-derivatized gelatin, a fluorescent marker. Next, collagenase (0.4 U/mL) was added and incubated at room temperature protected from sunlight for 2 hours, after which the fluorescence (λexc=495 nm and λem=515 nm) was measured at different points, thus the breakage in the derivatized gelatin could be quantified. As a positive control 1,10-phenanthroline was used, a metal chelator which acts as an inhibitor of metalloproteases.

For assay [5], the system named is tyrosinase. The assay can be described thus: Anti-tyrosinase activity, L-DOPA substrate. The format is biochemical. Here is the method: Different concentrations of the peptide […]-OH (Ac-(SEQ ID NO: 16)-OH) were incubated in a 96-well plate together with L-DOPA in a HEPES buffer for 30 minutes at 37° C. After incubation, the tyrosinase enzyme was added and incubated for 10 minutes. The reaction was stopped freezing the plate at -20° C. for 5 minutes, after which the absorbency was measured at λexc=490 nm in a microplate reader. As a positive control kojic acid was added, a substance with known anti-tyrosinase activity.

For assay [6], the system named is human epidermal melanocytes. In words: Inhibition of melanogenesis in human epidermal melanocytes. Type of assay: cell-based. The following applies: repeated treatment to day 10, control (culture medium) = 100. Here is the method:
Primary human melanocytes were cultivated in medium 254 supplemented by HMGS and antibiotics. The cells were grown for 72 hours after which the medium was changed to 254 supplemented by HMGS-2 and antibiotics. The cells were grown until confluence for 2 weeks, changing the medium every 2-3 days. After two weeks, the cells were trypsinized and seeded in 6-well plates. After being incubated for a whole night at 37° C. and 5% of CO2, the first treatment with the peptide was carried out at different concentrations. As a negative control, only medium was added. The treatment was repeated on days 3, 6, 8 and 10, after which the cells were trypsinized and the number counted with a cell counter. Melanin was quantified by measuring the absorbency at 450 nm with a microplate reader and the value was standardized with regard to the total number of cells per well, expressed as picograms of melanin per cell from a calibration line prepared with synthetic melanin dissolved in 1 N NaOH with 10% DMSO.

Assay [7] addresses collagenase. In words: cell-based or functional assay.
The target of assay [8] is tyrosinase. In words: cell-based or functional assay.
Setting [9] is: peptide 0.025 mg/mL + LL-37 0.05 mg/ml.
Setting [10] is: peptide 0.1 mg/mL + LL-37 0.05 mg/ml.
[11] abbreviates: peptide 0.5 mg/mL + LL-37 0.05 mg/ml.

As for “Ac-L-Ser-L-Val-L-Arg-L-Val-L-Ala-L-Val-NH2 (Ac-SVRVAV-NH2)”, the “% IL-6” value in assay [1] (setting [9]) came out at 108.35%; in assay [1] (setting [10]), 95.96%; in assay [1] (setting [11]) it was 93.15%. Further, the “% IL-8” value in assay [2] (setting [9]) was found to be 132.92%; in assay [2] (setting [10]), 125.05%; in assay [2] (setting [11]), 109.24%.
For “Ac-L-Ser-L-Val-L-Arg-L-Val-L-Ala-L-Val-NH2 (Ac-(SEQ ID NO: 2)-NH2) (peptide)”, in assay [3], the % IL-6 released by primary human keratinocytes (ELISA), peptide 0.025 mg/mL + LL-37 0.05 mg/ml; carrier 100%, LL-37 alone 122.28% was 108%; the % IL-6 released by primary human keratinocytes (ELISA), peptide 0.1 mg/mL + LL-37 0.05 mg/ml; carrier 100%, LL-37 alone 122.28% turned out to be 96%; the % IL-6 released by primary human keratinocytes (ELISA), peptide 0.5 mg/mL + LL-37 0.05 mg/ml; carrier 100%, LL-37 alone 122.28% came out at 93.2%; the % IL-8 released by primary human keratinocytes (ELISA), peptide 0.025 mg/mL + LL-37 0.05 mg/ml; carrier 100%, LL-37 alone 142.65% was 133%. In assay [3], the % IL-8 released by primary human keratinocytes (ELISA), peptide 0.1 mg/mL + LL-37 0.05 mg/ml; carrier 100%, LL-37 alone 142.65% came out at 125% and the % IL-8 released by primary human keratinocytes (ELISA), peptide 0.5 mg/mL + LL-37 0.05 mg/ml; carrier 100%, LL-37 alone 142.65% is 109%.
As to “LL-37: cathelicidin C-terminal antimicrobial peptide, used to induce release of IL-6 and IL-8 (LLGDFFRKSKEKIGKEFKRIVQRIKDFLRNLVPRTES; Antibacterial peptide LL-37; UniProt P49913 134-170, looked up) [reference compound]”, the “% IL-6” value in assay [1] (LL-37 0.05 mg/ml alone (positive control)) worked out at 122.28%. Also, the “% IL-8” value in assay [2] (LL37 0.05 mg/ml alone (positive control)) was determined as 142.65%.
Consider `CC(=O)N[C@@H](C)C(=O)N[C@H](C(=O)N[C@@H](CC(N)=O)C(=O)N[C@H](C(=O)O)[C@@H](C)O)[C@@H](C)O` [Ac-L-Ala-L-Thr-L-Asn-L-Thr-OH] (Ac-ATNT-OH), for which the “% IL-6” value in assay [1] (setting [9]) was determined as 107.25%; in assay [1] (setting [10]), 94.65%; in assay [1] (setting [11]), 92.90%. Also, the entries for the “% IL-8” value in assay [2] (setting [9]), in assay [2] (setting [10]) and in assay [2] (setting [11]) were 132.70%, 124.76% and 109.39%, respectively. For the same compound, the “% collagenase inhibition” value came out at 29.21% in assay [4] (2 mg/mL) and 100% in assay [4] (10 mg/mL). Further, the “% tyrosinase inhibition” value worked out at 38.23% in assay [5] (2 mg/mL), 76.01% in assay [5] (3 mg/mL) and 86.45% in assay [5] (4 mg/mL). Moreover, the “% melanin (pg/cel)” value turned out to be 45.7 ± 3.2% in assay [6] (0.25 mg/mL) and 55.8 ± 2.8% in assay [6] (0.625 mg/mL).
For the compound `O=c1cc(CO)occ1O` [kojic acid, reference compound], the “% tyrosinase inhibition” value in assay [5] (140 μg/mL) was determined as 85.79%.
As to “Ac-L-Ala-L-Thr-L-Asn-L-Thr-OH (Ac-(SEQ ID NO: 16)-OH) (peptide)”, in assay [3], the % IL-6 released by primary human keratinocytes (ELISA), peptide 0.025 mg/mL; carrier 100%, LL-37 0.05 mg/ml alone 122.28% came to 107%; the % IL-6 released by primary human keratinocytes (ELISA), peptide 0.1 mg/mL + LL-37 0.05 mg/ml; carrier 100%, LL-37 alone 122.28% came to 94.7%; the % IL-6 released by primary human keratinocytes (ELISA), peptide 0.5 mg/mL + LL-37 0.05 mg/ml; carrier 100%, LL-37 alone 122.28% amounted to 92.9%; the % IL-8 released by primary human keratinocytes (ELISA), peptide 0.025 mg/mL + LL-37 0.05 mg/ml; carrier 100%, LL-37 alone 142.65% came out at 133%. Also, in assay [3], the % IL-8 released by primary human keratinocytes (ELISA), peptide 0.1 mg/mL + LL-37 0.05 mg/ml; carrier 100%, LL-37 alone 142.65% came to 125% and the % IL-8 released by primary human keratinocytes (ELISA), peptide 0.5 mg/mL + LL-37 0.05 mg/ml; carrier 100%, LL-37 alone 142.65% amounted to 109%. In assay [7], the % collagenase inhibition (cleavage of fluorescein-derivatized gelatin, collagenase 0.4 U/mL), peptide 2 mg/mL amounted to 29.2% and the % collagenase inhibition (cleavage of fluorescein-derivatized gelatin, collagenase 0.4 U/mL), peptide 10 mg/mL worked out at 100%. In assay [8], this compound showed a % tyrosinase inhibition (L-DOPA oxidation, absorbance 490 nm), peptide 2 mg/mL of 38.2%; a % tyrosinase inhibition (L-DOPA oxidation, absorbance 490 nm), peptide 3 mg/mL of 76%; a % tyrosinase inhibition (L-DOPA oxidation, absorbance 490 nm), peptide 4 mg/mL of 86.5%.
As to `c1cnc2c(c1)ccc1cccnc12` [1,10-phenanthroline, reference compound], the “% collagenase inhibition” value in assay [4] (40 μg/mL) came to 95.19%.
